Assay results from the kinase profiling compilation of Christmann-Franck et al. (2016).

Experiments:
Test in all cases: Caliper, Mobility shift assay off-chip
ROCK1 (human) = ROCK1 (human) (UniProt Q13464)
AXL (human) = AXL (human) (UniProt P30530)
PTK2 (human) = PTK2 (human) (UniProt Q05397)
PGK1 (human) = PGK1 (human) (UniProt P00558)
MAPKAPK2 (human) = MAPKAPK2 (human) (UniProt P49137)
CAMK2A (human) = CAMK2A (human) (UniProt Q9UQM7)
CAMK2D (human) = CAMK2D (human) (UniProt Q13557)
AURKC (human) = AURKC (human) (UniProt Q9UQB9)
ZAP70 (human) = ZAP70 (human) (UniProt P43403)
PAK4 (human) = PAK4 (human) (UniProt O96013)
KDR (human) = KDR (human) (UniProt P35968)
MAPK8 (human) = MAPK8 (human) (UniProt P45983)
ALK EML4 (human) = ALK EML4 (human) (UniProt Q9HC35+Q9UM73)
ROCK2 (human) = ROCK2 (human) (UniProt O75116)
NEK6 (human) = NEK6 (human) (UniProt Q9HC98)
PBK (human) = PBK (human) (UniProt Q96KB5)
STK38 (human) = STK38 (human) (UniProt Q15208)
CAMK1D (human) = CAMK1D (human) (UniProt Q8IU85)
LATS2 (human) = LATS2 (human) (UniProt Q9NRM7)
CSNK1G2 (human) = CSNK1G2 (human) (UniProt P78368)
MARK3 (human) = MARK3 (human) (UniProt P27448)
MAPK3 (human) = MAPK3 (human) (UniProt P27361)
HIPK2 (human) = HIPK2 (human) (UniProt Q9H2X6)
NIM1 (human) = NIM1 (human) (UniProt Q8IY84)
PAK7 (human) = PAK7 (human) (UniProt Q9P286)
AKT3 (human) = AKT3 (human) (UniProt Q9Y243)
CHEK2 (human) = CHEK2 (human) (UniProt O96017)
PRKAA1 (human) = PRKAA1 (human) (UniProt Q13131); conditions: compound 0.2 µM
TAOK2 (human) = TAOK2 (human) (UniProt Q9UL54)
DYRK1B (human) = DYRK1B (human) (UniProt Q9Y463)
ERBB4 (human) = ERBB4 (human) (UniProt Q15303)
PTK2B (human) = PTK2B (human) (UniProt Q14289)
MKNK1 (human) = MKNK1 (human) (UniProt Q9BUB5)
PIM3 (human) = PIM3 (human) (UniProt Q86V86)

Chain of NEK6 (human) (Q9HC98 whole entry, looked up): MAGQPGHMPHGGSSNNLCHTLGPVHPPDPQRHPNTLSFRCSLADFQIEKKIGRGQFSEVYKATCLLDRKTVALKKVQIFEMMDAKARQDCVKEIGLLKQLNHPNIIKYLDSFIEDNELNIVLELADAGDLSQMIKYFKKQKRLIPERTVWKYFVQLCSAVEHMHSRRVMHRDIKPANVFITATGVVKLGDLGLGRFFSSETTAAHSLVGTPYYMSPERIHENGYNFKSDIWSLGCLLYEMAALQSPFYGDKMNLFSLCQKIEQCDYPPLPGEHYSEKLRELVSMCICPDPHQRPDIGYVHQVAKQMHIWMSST
Chain of ROCK2 (human) (O75116 whole entry, looked up): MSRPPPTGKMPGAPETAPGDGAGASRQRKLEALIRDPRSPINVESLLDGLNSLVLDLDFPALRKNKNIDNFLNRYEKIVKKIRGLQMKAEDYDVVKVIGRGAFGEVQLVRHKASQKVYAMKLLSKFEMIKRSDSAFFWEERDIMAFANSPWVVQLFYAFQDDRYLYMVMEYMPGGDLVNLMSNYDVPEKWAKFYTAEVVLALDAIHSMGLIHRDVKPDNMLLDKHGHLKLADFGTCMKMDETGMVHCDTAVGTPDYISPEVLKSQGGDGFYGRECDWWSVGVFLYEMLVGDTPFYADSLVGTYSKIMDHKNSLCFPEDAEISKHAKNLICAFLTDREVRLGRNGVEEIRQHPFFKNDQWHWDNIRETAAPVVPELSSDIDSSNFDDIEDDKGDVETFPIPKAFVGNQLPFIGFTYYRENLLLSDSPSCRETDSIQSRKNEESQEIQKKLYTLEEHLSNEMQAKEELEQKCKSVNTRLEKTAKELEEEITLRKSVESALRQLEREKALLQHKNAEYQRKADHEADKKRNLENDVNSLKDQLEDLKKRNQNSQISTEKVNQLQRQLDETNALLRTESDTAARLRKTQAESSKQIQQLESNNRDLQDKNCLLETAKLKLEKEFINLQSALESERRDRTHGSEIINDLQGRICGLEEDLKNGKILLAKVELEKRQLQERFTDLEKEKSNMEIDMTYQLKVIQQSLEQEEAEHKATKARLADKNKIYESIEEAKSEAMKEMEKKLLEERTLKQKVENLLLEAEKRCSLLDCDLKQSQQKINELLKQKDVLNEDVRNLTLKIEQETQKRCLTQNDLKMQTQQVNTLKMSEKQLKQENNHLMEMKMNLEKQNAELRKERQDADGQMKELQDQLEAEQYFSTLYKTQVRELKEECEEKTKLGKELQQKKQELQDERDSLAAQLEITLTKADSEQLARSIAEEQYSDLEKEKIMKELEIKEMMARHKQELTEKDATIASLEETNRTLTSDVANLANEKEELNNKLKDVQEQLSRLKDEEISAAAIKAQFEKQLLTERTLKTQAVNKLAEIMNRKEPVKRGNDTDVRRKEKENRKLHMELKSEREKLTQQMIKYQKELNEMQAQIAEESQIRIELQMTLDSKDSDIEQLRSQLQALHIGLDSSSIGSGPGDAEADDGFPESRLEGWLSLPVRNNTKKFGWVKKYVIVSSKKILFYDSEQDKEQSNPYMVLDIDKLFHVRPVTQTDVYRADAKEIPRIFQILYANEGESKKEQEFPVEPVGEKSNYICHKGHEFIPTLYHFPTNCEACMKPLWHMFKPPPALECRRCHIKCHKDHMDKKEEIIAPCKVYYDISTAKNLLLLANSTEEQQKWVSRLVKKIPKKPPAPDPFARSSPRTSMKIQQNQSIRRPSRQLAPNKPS
Chain of CAMK1D (human) (Q8IU85 whole entry, looked up): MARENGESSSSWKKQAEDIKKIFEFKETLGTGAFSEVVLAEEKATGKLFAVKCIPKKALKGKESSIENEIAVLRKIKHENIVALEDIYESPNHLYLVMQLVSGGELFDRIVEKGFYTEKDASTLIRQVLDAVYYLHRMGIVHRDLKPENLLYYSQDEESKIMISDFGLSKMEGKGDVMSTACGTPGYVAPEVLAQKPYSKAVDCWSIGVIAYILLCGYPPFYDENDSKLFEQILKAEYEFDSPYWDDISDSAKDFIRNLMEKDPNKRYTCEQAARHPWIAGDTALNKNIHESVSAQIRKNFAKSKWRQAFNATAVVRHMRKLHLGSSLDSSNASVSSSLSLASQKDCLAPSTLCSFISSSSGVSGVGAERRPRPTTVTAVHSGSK
Chain of MKNK1 (human) (Q9BUB5 whole entry, looked up): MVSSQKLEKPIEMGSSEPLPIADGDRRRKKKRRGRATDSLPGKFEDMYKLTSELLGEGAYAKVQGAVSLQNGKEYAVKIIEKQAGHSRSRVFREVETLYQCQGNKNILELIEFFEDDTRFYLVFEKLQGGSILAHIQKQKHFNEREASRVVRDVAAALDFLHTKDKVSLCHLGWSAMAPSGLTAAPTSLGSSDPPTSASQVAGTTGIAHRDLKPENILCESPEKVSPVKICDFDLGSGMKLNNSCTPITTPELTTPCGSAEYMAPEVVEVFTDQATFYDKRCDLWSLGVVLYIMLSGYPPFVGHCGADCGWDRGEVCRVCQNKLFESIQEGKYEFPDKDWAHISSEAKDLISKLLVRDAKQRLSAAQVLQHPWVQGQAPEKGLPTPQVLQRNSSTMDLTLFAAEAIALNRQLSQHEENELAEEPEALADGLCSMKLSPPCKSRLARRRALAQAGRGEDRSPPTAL
Chain of ROCK1 (human) (Q13464 whole entry, looked up): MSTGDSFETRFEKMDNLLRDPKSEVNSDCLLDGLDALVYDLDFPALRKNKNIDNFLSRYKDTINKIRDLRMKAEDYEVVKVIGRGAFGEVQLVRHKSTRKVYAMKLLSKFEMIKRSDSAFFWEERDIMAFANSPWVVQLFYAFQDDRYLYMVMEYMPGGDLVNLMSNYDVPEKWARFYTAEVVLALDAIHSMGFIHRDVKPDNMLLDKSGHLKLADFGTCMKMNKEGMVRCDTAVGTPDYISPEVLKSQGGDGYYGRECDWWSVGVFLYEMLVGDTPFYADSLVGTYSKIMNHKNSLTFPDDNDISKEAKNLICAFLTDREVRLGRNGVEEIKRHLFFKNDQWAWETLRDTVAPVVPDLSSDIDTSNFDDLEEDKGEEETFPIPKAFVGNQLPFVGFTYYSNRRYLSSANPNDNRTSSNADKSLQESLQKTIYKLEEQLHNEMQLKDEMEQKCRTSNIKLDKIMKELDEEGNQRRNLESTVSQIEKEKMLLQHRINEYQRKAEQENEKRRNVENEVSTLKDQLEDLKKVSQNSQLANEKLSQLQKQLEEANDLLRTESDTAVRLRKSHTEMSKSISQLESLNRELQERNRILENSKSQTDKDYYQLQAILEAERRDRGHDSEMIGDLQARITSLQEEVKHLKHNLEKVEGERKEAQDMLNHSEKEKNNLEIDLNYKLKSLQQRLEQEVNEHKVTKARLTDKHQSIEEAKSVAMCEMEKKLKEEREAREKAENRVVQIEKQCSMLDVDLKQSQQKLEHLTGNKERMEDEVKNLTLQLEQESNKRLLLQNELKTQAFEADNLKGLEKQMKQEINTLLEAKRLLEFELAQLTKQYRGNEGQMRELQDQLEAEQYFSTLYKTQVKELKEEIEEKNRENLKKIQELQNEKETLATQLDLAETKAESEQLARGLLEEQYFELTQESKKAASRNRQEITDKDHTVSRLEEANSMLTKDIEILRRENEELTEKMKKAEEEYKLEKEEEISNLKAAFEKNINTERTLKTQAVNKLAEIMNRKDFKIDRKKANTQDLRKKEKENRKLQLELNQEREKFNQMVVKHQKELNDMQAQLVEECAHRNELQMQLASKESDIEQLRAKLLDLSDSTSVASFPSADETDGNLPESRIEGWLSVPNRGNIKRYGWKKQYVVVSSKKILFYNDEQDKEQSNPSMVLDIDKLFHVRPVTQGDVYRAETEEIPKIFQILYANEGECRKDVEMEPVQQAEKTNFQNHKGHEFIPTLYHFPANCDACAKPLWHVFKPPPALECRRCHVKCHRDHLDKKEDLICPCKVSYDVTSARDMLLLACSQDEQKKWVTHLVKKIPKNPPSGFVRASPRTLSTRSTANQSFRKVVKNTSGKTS
Chain of MAPKAPK2 (human) (P49137 whole entry, looked up): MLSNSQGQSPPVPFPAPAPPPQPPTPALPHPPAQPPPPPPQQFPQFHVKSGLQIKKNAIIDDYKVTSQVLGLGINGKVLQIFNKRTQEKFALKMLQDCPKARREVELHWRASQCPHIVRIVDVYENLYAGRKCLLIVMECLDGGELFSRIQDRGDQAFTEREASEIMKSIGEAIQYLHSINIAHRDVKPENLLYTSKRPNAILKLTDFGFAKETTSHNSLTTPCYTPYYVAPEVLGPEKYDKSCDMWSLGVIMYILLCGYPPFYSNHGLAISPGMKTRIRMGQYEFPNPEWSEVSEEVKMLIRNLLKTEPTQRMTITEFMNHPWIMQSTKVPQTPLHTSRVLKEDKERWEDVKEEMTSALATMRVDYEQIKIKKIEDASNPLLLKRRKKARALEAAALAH
Chain of PBK (human) (Q96KB5 whole entry, looked up): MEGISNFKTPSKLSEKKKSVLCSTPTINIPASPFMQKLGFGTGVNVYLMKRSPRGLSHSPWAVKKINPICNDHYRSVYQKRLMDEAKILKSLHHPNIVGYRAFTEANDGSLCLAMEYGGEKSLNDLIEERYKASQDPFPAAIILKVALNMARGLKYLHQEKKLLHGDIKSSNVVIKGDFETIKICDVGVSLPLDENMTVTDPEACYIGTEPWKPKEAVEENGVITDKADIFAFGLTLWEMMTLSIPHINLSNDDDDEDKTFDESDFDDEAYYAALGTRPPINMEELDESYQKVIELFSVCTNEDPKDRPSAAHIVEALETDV

inhibition (ROCK1 (human); compound 0.02 µM): -1.3%
inhibition (ROCK1 (human); compound 0.2 µM): -1.3%
inhibition (AXL (human); compound 0.02 µM): 6.9%
inhibition (AXL (human); compound 0.2 µM): 17.7%
inhibition (PTK2 (human); compound 0.02 µM): -5.3%
inhibition (PTK2 (human); compound 0.2 µM): -4.2%
inhibition (PGK1 (human); compound 0.02 µM): -1.4%
inhibition (PGK1 (human); compound 0.2 µM): -6.5%
inhibition (MAPKAPK2 (human); compound 0.02 µM): 6.1%
inhibition (MAPKAPK2 (human); compound 0.2 µM): -1.5%
inhibition (CAMK2A (human); compound 0.02 µM): 3.5%
inhibition (CAMK2A (human); compound 0.2 µM): 3.9%
inhibition (CAMK2D (human); compound 0.02 µM): 3.9%
inhibition (CAMK2D (human); compound 0.2 µM): 3.9%
inhibition (AURKC (human); compound 0.02 µM): -4.3%
inhibition (AURKC (human); compound 0.2 µM): -4%
inhibition (ZAP70 (human); compound 0.02 µM): 3.1%
inhibition (ZAP70 (human); compound 0.2 µM): 3.4%
inhibition (PAK4 (human); compound 0.02 µM): 6.5%
inhibition (PAK4 (human); compound 0.2 µM): 0%
inhibition (KDR (human); compound 0.02 µM): 96.3%
inhibition (KDR (human); compound 0.2 µM): 101%
inhibition (MAPK8 (human); compound 0.02 µM): -2.8%
inhibition (MAPK8 (human); compound 0.2 µM): -2.5%
inhibition (ALK EML4 (human); compound 0.02 µM): -1.4%
inhibition (ALK EML4 (human); compound 0.2 µM): 0.1%
inhibition (ROCK2 (human); compound 0.02 µM): -2.2%
inhibition (ROCK2 (human); compound 0.2 µM): -4.8%
inhibition (NEK6 (human); compound 0.02 µM): -4.2%
inhibition (NEK6 (human); compound 0.2 µM): -3.5%
inhibition (PBK (human); compound 0.02 µM): 0.1%
inhibition (PBK (human); compound 0.2 µM): -6.1%
inhibition (STK38 (human); compound 0.02 µM): 9.6%
inhibition (STK38 (human); compound 0.2 µM): -1.9%
inhibition (CAMK1D (human); compound 0.02 µM): 0.3%
inhibition (CAMK1D (human); compound 0.2 µM): -0.6%
inhibition (LATS2 (human); compound 0.02 µM): -7.6%
inhibition (LATS2 (human); compound 0.2 µM): -0.9%
inhibition (CSNK1G2 (human); compound 0.02 µM): -0.7%
inhibition (CSNK1G2 (human); compound 0.2 µM): -2.1%
inhibition (MARK3 (human); compound 0.02 µM): -1.8%
inhibition (MARK3 (human); compound 0.2 µM): -3.4%
inhibition (MAPK3 (human); compound 0.02 µM): -1.5%
inhibition (MAPK3 (human); compound 0.2 µM): -5%
inhibition (HIPK2 (human); compound 0.02 µM): -1.7%
inhibition (HIPK2 (human); compound 0.2 µM): 0.7%
inhibition (NIM1 (human); compound 0.02 µM): 15.8%
inhibition (NIM1 (human); compound 0.2 µM): -9.8%
inhibition (PAK7 (human); compound 0.02 µM): -5.8%
inhibition (PAK7 (human); compound 0.2 µM): 7.3%
inhibition (AKT3 (human); compound 0.02 µM): -3.5%
inhibition (AKT3 (human); compound 0.2 µM): -4.2%
inhibition (CHEK2 (human); compound 0.02 µM): -1.2%
inhibition (CHEK2 (human); compound 0.2 µM): 3.6%
inhibition (PRKAA1 (human)): 7.1%
inhibition (TAOK2 (human); compound 0.02 µM): 3.1%
inhibition (TAOK2 (human); compound 0.2 µM): 3.3%
inhibition (DYRK1B (human); compound 0.02 µM): 6.7%
inhibition (DYRK1B (human); compound 0.2 µM): -1.1%
inhibition (ERBB4 (human); compound 0.02 µM): 17.2%
inhibition (ERBB4 (human); compound 0.2 µM): 49.8%
inhibition (PTK2B (human); compound 0.02 µM): -1.9%
inhibition (PTK2B (human); compound 0.2 µM): -5.4%
inhibition (MKNK1 (human); compound 0.02 µM): -2.9%
inhibition (MKNK1 (human); compound 0.2 µM): 2.6%
inhibition (PIM3 (human); compound 0.02 µM): -1.8%
inhibition (PIM3 (human); compound 0.2 µM): -6.2%
SMILES: COc1cc2c(Oc3ccc4[nH]c(C)cc4c3F)ncnc2cc1OCCCN1CCCC1
